Measured values from US12441727B2, “Tricyclic compounds as inhibitors of KRAS” (Incyte Corporation, priority 2021, dated 2025).
Read-outs that look alike come from different tables or passages of the source.

Experiments:
KRAS_G12C pERK = test: Cellular pERK HTRF assay (KRAS_G12C pERK assay); format: cell-based, human; conditions: KRAS G12C cells, 4 hours incubation with compound, read-out: G12C_pERK
Procedure: MIA PaCa-2 (KRAS G12C; ATCC® CRL-1420), NCI-H358 (KRAS G12C; ATCC® CRL-5807), A427 (KRAS G12D; ATCC® HTB53), HPAFII (KRAS G12D; ATCC® CRL-1997), YAPC (KRAS G12V; DSMZ ACC382), SW480 (KRAS G12V; ATCC® CRL-228) and NCI-H838 (KRAS WT; ATCC® CRL-5844) cells are purchased from ATCC and maintained in RPMI 1640 media supplemented with 10% FBS (Gibco/Life Technologies). The cells are plated at 5000 cells per well (8 uL) into Greiner 384-well low volume, flat-bottom, and tissue culture treated white plates and incubated overnight at […], 5% CO2. The next morning, test compound stock solutions are diluted in media at 3× the final concentration and 4 uL are added to the cells, with a final concentration of 0.1% of DMSO. The cells are incubated with the test compounds for 4 hours (G12C and G12V) or 2 hrs (G12D) at 37° C., 5% CO2. Four uL of 4× lysis buffer with blocking reagent (Cisbio) are added to each well and plates are rotated gently (300 rpm) for 30 minutes at room temperature. Four uL per well of Cisbio anti Phospho-ERK 1/2 d2 is mixed with anti Phospho-ERK 1/2 Cryptate (1:1), and added to each well, incubated overnight in the dark at room temperature. Plates are read on the Pherastar plate reader at 665 nm and 620 nm wavelengths. Data are analyzed in Genedata Screener using SmartFit for IC50 values.

KRAS G12C = KRAS G12C (Homo sapiens, UniProt P01116, G12C); test: GDP-GTP exchange assay (KRAS_G12C exchange assay); format: biochemical; conditions: bodipy-loaded KRAS G12C 2.5 nM, SOS1 150 nM, 2 hours pre-incubation with inhibitor; read-out: G12C_exchange
KRAS G12C, sequence (P01116 1-188 isoform P01116-2 G12C): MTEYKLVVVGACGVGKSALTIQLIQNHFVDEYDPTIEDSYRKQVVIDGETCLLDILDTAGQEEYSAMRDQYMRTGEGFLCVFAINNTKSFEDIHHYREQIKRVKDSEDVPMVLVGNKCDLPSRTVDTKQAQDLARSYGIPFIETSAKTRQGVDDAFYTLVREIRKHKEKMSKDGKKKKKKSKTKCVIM
Procedure: The inhibitor potency of the exemplified compounds was determined in a fluorescence based guanine nucleotide exchange assay, which measures the exchange of bodipy-GDP (fluorescently labeled GDP) for GppNHp (Non-hydrolyzable GTP analog) to generate the active state of KRAS in the presence of SOS1 (guanine nucleotide exchange factor). Inhibitors were serially diluted in DMSO and a volume of 0.1 μL was transferred to the wells of a black low volume 384-well plate. 5 μL/well volume of bodipy-loaded KRAS G12C diluted to 5 nM in assay buffer (25 mM Hepes pH 7.5, 50 mM NaCl, 10 mM MgCl2 and 0.01% Brij-35) was added to the plate and pre-incubated with inhibitor for 2 hours at ambient temperature. Appropriate controls (enzyme with no inhibitor or with a G12C inhibitor (AMG-510)) were included on the plate. The exchange was initiated by the addition of a 5 μL/well volume containing 1 mM GppNHp and 300 nM SOS1 in assay buffer. The 10 μL/well reaction concentration of the bodipy-loaded KRAS G12C, GppNHp, and SOS1 were 2.5 nM, 500 uM, and 150 nM, respectively. The reaction plates were incubated at ambient temperature for 2 hours, a time estimated for complete GDP-GTP exchange in the absence of inhibitor. For the KRAS G12D and G12V mutants, similar guanine nucleotide exchange assays were used with 2.5 nM as final concentration for the bodipy loaded KRAS proteins and with 4 hours and 3 hours incubation after adding GppNHp-SOS1 mixture for G12D and G12V respectively. A cyclic peptide described to selectively bind G12D mutant (Sakamoto et al., BBRC 484.3 (2017), 605-611) or internal compounds with confirmed binding were used as positive controls in the assay plates. Fluorescence intensities were measured on a PheraStar plate reader instrument (BMG Labtech) with excitation at 485 nm and emission at 520 nm.
Either GraphPad prism or Genedata Screener SmartFit was used to analyze the data. The IC50 values were derived by fitting the data to a four parameter logistic equation producing a sigmoidal dose-response curve with a variable Hill coefficient.

[1] = tested on: KRAS_G12C pERK in MIA PaCa-2 cells; test: Whole Blood pERK1/2 HTRF assay (KRAS_G12C WB pERK assay); format: cell-based, human; conditions: Homo sapiens, compound in whole blood, 4 hours, read-out: G12C_WB_pERK
Procedure: MIA PaCa-2 cells (KRAS G12C; ATCC® CRL-1420), HPAF-II (KRAS G12D; ATCC® CRL-1997) and YAPC (KRAS G12V; DSMZ ACC382) are maintained in RPMI 1640 with 10% FBS (Gibco/Life Technologies). For MIA PaCa-2 assay, cells are seeded into 96 well tissue culture plates (Corning #3596) at 25000 cells per well in 100 uL media and cultured for 2 days at 37° C., 5% CO2 before the assay. For HPAF-II and YAPC assay, cells are seeded in 96 well tissue culture plates at 50000 cells per well in 100 uL media and cultured for 1 day before the assay. Whole Blood are added to the 1 uL dots of compounds (prepared in DMSO) in 96 well plates and mixed gently by pipetting up and down so that the concentration of the compound in blood is 1× of desired concentration, in 0.5% DMSO. The media is aspirated from the cells and 50 uL per well of whole blood with test compound is added and incubated for 4 hours for MIA PaCa and YAPC assay; or 2 hours for HPAF-II assay, respectively at 37° C., 5% CO2. After dumping the blood, the plates are gently washed twice by adding PBS to the side of the wells and dumping the PBS from the plate onto a paper towel, tapping the plate to drain well. Fifty ul/well of 1× lysis buffer #1 (Cisbio) with blocking reagent (Cisbio) and Benzonase nuclease (Sigma Cat #E1014-5KU, 1:10000 final concentration) is then added and incubated at room temperature for 30 minutes with shaking (250 rpm). Following lysis, 16 uL of lysate is transferred into 384-well Greiner small volume white plate using an Assist Plus (Integra Biosciences, NH). Four uL of 1:1 mixture of anti Phospho-ERK 1/2 d2 and anti Phospho-ERK 1/2 Cryptate (Cisbio) is added to the wells using the Assist Plus and incubated at room temperature overnight in the dark. Plates are read on the Pherastar plate reader at 665 nm and 620 nm wavelengths. Data are analyzed in Genedata Screener using SmartFit for IC50 values.

| Structure (SMILES) | IC50 (KRAS_G12C pERK) | IC50 (KRAS G12C) | IC50 (KRAS_G12C pERK; Homo sapiens, 4 h) | IC50 [1] |
| --- | --- | --- | --- | --- |
| C=CC(=O)N1CC[C@H](n2nnc3c(O[C@@H](C)[C@@H]4CCCN4C)nc4c(F)c(-c5cccc6cccc(C#N)c56)c(C)cc4c32)C[C@H]1C (single isomer, unassigned) [Example 14a] |  | 50 to 100 nM |  |  |
| C=C(F)C(=O)N1CC[C@H](n2nnc3c(N4CC(N(C)CC)C4)nc4c(F)c(-c5c(C)c(C)cc6[nH]ncc56)c(C)cc4c32)C[C@H]1CC#N (single isomer, unassigned) [Example 15b] |  | 100 to 1000 nM |  |  |
| C=C(F)C(=O)N1CC[C@H](n2nnc3c(N4CC(C)(N(C)C)C4)nc4c(F)c(-c5cccc6cccc(C#N)c56)c(C)cc4c32)C[C@H]1CC#N (single isomer, unassigned) [Example 17b] |  | 100 to 1000 nM |  |  |
| CN(C)C1(C)CN(c2nc3c(Cl)c(-c4ccc(F)c5cccnc45)c(Cl)cc3c3c2nnn3[C@H]2CCN(C(=O)/C=C/CF)[C@H](CC#N)C2)C1 (single isomer, unassigned) [Example 19b] | ≤ 50 nM | ≤ 50 nM |  |  |
| C=C(F)C(=O)N1CC[C@H](n2nnc3c(O[C@@H](C)[C@@H]4CCCN4C)nc4c(F)c(-c5c(C)ncc6ccccc56)c(C)cc4c32)C[C@H]1CC#N (single isomer, unassigned) [Example 23a] |  | 50 to 100 nM |  |  |
| C=C(F)C(=O)N1CC[C@H](n2nnc3c(O[C@@H](C)[C@@H]4CCCN4C)nc4c(F)c(-c5c(C)ncc6ccccc56)c(C)cc4c32)C[C@H]1CC#N (single isomer, unassigned) [Example 23b] |  | ≤ 50 nM | ≤ 50 nM | ≤ 50 nM |
| COC/C=C/C(=O)N1CC[C@H](n2nnc3c(O[C@@H](C)[C@@H]4CCCN4C)nc4c(F)c(-c5c(C)ncc6ccccc56)c(C)cc4c32)C[C@H]1CC#N (single isomer, unassigned) [Example 24a] |  | ≤ 50 nM | 50 to 100 nM |  |
| C=C(F)C(=O)N1CC[C@H](n2nnc3c(O[C@@H](C)[C@@H]4CCCN4C)nc4c(F)c(-c5c(F)ccc6ccc(C)nc56)c(C)cc4c32)C[C@H]1CC#N (single isomer, unassigned) [Example 25b] | ≤ 50 nM | ≤ 50 nM |  |  |
| C=CC(=O)N1CC[C@H](n2nnc3c(O[C@@H](C)[C@@H]4CCCN4C)nc4c(F)c(-c5cccc6c5c(CC#N)nn6C)c(C)cc4c32)C[C@H]1C (single isomer, unassigned) [Example 28a] |  | 100 to 1000 nM |  |  |
| C=CC(=O)N1CC[C@H](n2nnc3c(O[C@@H](C)[C@@H]4CCCN4C)nc4c(F)c(-c5cccc6c5c(CC#N)cn6C)c(C)cc4c32)C[C@H]1C (single isomer, unassigned) [Example 31a] |  | 100 to 1000 nM |  |  |
| C=CC(=O)N1CCC(n2nnc3c(O[C@@H](C)[C@@H]4CCCN4C)nc4c(F)c(-c5cccc6c5c(CC#N)cn6C)c(C)cc4c32)CC1 (single isomer, unassigned) [Example 32a] |  | 50 to 100 nM |  |  |
| C=C(F)C(=O)N1CC[C@H](n2nnc3c(N4CC(C)(N(C)CC)C4)nc4c(F)c(-c5c(C)c(C)cc6[nH]ncc56)c(Cl)cc4c32)C[C@H]1CC#N (single isomer, unassigned) [Example 33b] |  | 100 to 1000 nM |  |  |
| COC/C=C/C(=O)N1CC[C@H](n2nnc3c(O[C@@H](C)[C@@H]4CCCN4C)nc4c(F)c(-c5c(F)cccc5OC)c(C)cc4c32)C[C@H]1CC#N (single isomer, unassigned) [Example 34a] |  | ≤ 50 nM | ≤ 50 nM |  |
| C=C(F)C(=O)N1CC[C@H](n2nnc3c(N4CC(C)(N(C)CC)C4)nc4c(F)c(-c5c(C)c(F)cc6[nH]ncc56)c(Cl)cc4c32)C[C@H]1CC#N (single isomer, unassigned) [Example 35b] |  | 100 to 1000 nM |  |  |

Now from value to compound:

| IC50 (KRAS_G12C pERK) | IC50 (KRAS G12C) | IC50 (KRAS_G12C pERK; Homo sapiens, 4 h) | IC50 [1] | Structure (SMILES) |
| --- | --- | --- | --- | --- |
| 50 to 100 nM | ≤ 50 nM |  |  | CN(C)C1(C)CN(c2nc3c(F)c(-c4ccc(F)c5cccnc45)c(C(F)(F)F)cc3c3c2nnn3[C@H]2CCN(C(=O)/C=C/CF)[C@H](CC#N)C2)C1 (single isomer, unassigned) [Example 1b] |
| 50 to 100 nM | ≤ 50 nM |  |  | COc1c(C)cccc1-c1c(C(F)(F)F)cc2c(nc(N3CC(C)(N(C)C)C3)c3nnn([C@H]4CCN(C(=O)/C=C/CF)[C@H](CC#N)C4)c32)c1F (single isomer, unassigned) [Example 2b] |
| ≤ 50 nM | ≤ 50 nM |  |  | COc1c(Cl)cccc1-c1c(C(F)(F)F)cc2c(nc(N3CC(C)(N(C)C)C3)c3nnn([C@H]4CCN(C(=O)/C=C/CF)[C@H](CC#N)C4)c32)c1F (single isomer, unassigned) [Example 3b] |
| ≤ 50 nM | ≤ 50 nM |  |  | C[C@H](Oc1nc2c(F)c(-c3ccc(F)c4cccnc34)c(C(F)(F)F)cc2c2c1nnn2[C@H]1CCN(C(=O)/C=C/CF)[C@H](CC#N)C1)[C@@H]1CCCN1C (single isomer, unassigned) [Example 4b] |
| 50 to 100 nM | ≤ 50 nM |  |  | C=CC(=O)N1CCC(n2nnc3c(O[C@@H](C)[C@@H]4CCCN4C)nc4c(F)c(-c5ccc(F)c6cccnc56)c(C(F)(F)F)cc4c32)CC1 (single isomer, unassigned) [Example 5b] |
|  | ≤ 50 nM | 100 to 1000 nM |  | C=CC(=O)N1CCC(n2nnc3c(O[C@@H](C)[C@@H]4CCCN4C)nc4c(F)c(-c5cccc6cccc(C#N)c56)c(C)cc4c32)CC1 (single isomer, unassigned) [Example 11a] |
|  | ≤ 50 nM | 100 to 1000 nM |  | Cc1cc2c(nc(O[C@@H](C)[C@@H]3CCCN3C)c3nnn(C4CCN(C(=O)/C=C/CF)CC4)c32)c(F)c1-c1cccc2cccc(C#N)c12 (single isomer, unassigned) [Example 16a] |
|  | ≤ 50 nM | ≤ 50 nM | 50 to 100 nM | C=C(F)C(=O)N1CC[C@H](n2nnc3c(N4CC(C)(N(C)C)C4)nc4c(F)c(-c5cccc6cccc(C#N)c56)c(C)cc4c32)C[C@H]1CC#N (single isomer, unassigned) [Example 17a] |
| 100 to 1000 nM | ≤ 50 nM |  |  | COC/C=C/C(=O)N1CC[C@H](n2nnc3c(N4CC(C)(N(C)C)C4)nc4c(Cl)c(-c5ccc(F)c6cccnc56)c(Cl)cc4c32)C[C@H]1CC#N (single isomer, unassigned) [Example 18b] |
